Assay results taken from article PMC11678328, “Phosphine Oxide Indenoquinoline Derivatives: Synthesis and Biological Evaluation as Topoisomerase I Inhibitors and Antiproliferative Agents” (Molecules, 2024).

How the values were obtained:
human TOP1 [1] = target: T1, human TOP1 (Homo sapiens, UniProt P11387); assay: TOP1 supercoiled plasmid DNA relaxation assay; assay type: biochemical; conditions: for Persistence of TOP1 inhibition over the time course: 100 μM, in words; for TOP1 Inhibition 1 min: 1 min reaction; for TOP1 Inhibition 1 min / TOP1 Inhibition 3 min / TOP1 Inhibition 5 min: compounds at 100 μM, semiquantitative; for TOP1 Inhibition 3 min: 3 min reaction; for TOP1 Inhibition 5 min: 5 min reaction
T1 construct: made in house; host or cells: Saccharomyces cerevisiae TOP1 null strain RS190, plasmid pHT143 (GAL promoter)
T1 sequence (P11387 1-765): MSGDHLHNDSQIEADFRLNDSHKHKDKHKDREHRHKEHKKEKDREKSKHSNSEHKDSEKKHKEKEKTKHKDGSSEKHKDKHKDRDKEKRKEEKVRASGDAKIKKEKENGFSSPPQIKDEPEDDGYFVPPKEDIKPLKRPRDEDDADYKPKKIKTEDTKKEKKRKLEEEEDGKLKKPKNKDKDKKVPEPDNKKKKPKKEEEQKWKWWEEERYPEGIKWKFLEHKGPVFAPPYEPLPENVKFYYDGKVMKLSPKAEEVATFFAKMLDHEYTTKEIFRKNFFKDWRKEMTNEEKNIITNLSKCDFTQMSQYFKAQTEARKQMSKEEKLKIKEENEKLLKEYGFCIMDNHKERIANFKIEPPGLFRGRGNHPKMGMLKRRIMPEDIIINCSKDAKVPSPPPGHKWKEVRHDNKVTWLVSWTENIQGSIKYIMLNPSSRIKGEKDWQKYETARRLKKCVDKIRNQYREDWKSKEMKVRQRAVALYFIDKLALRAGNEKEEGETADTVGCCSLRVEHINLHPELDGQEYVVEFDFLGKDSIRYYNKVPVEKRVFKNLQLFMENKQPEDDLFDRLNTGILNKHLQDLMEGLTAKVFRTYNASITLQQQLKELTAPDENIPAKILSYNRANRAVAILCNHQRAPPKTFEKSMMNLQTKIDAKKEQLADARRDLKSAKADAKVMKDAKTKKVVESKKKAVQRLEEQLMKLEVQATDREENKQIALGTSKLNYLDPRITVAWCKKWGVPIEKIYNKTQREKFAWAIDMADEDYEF
Source text: The effect of the previously prepared compounds as TOP1 inhibitors was studied. A conventional supercoiled plasmid relaxation assay was used to determine if the newly fused tetrahydroindenoquinolines 8, more aromatic indenoquinolines 9, and carbonyl derivatives 10 with phosphine oxide substituents inhibit human TOP1 activity by converting supercoiled plasmid DNA to its relaxed form. In these experiments, compound samples were mixed with the enzyme followed by the addition of a supercoiled plasmid DNA substrate, and incubation continued for increasing time intervals (1 min, 3 min, and 5 min). The reaction was terminated by the addition of SDS. DNA relaxation products were then resolved by 1% agarose electrophoresis gel and visualized by gel red staining.
The yeast Saccaromyces cerevisiae TOP1 null strain RS190, which was used for the expression of recombinant human TOP1, was a kind gift from R. Sternglanz (State University of New York, Stony Brook, NY, USA). Plasmid pHT143, for the expression of recombinant TOP1 under the control of an inducible GAL promoter, was described. The plasmids pHT143 were transformed into the yeast S. cerevisiae strain RS190. The proteins were expressed and purified by affinity chromatography essentially as described. The protein concentrations were estimated from Coomassie blue-stained SDS/polyacrylamide gels by comparison to serial dilutions of bovine serum albumin (BSA).
TOP1 activity was assayed using a DNA relaxation assay by incubating 110 ng/mL of TOP1 with 0.5 µg of negatively supercoiled pUC18 in […] of reaction buffer (20 mM Tris HCl, 0.1 mM Na2EDTA, 10 mM MgCl2, […] acetylated BSA, and 150 mM KCl, pH 7.5). The effect of the synthesized phosphorylated derivatives 8, 9, and 10 on the TOP1 activity was measured by adding different concentrations of the compounds, at different time points, as indicated in the text. The reactions were performed at 37 °C stopped by the addition of 0.5% SDS after the indicated time intervals. The samples were protease-digested and electrophoresed in a horizontal 1% agarose gel in 1xTBE (50 mM Tris, 45 mM boric acid, 1 mM EDTA) at 25V during 18h. The gel was stained with gel red (BIOTIUM, 5 mg/mL), destained with water, and photographed under UV illumination. Since all drugs were dissolved in dimethyl sulfoxide (DMSO), a […] control sample containing the same DMSO concentration as the samples incubated with the drugs was included in all experiments.

[2] = system: MRC-5, lung fibroblast cells; assay: CCK-8 cytotoxicity assay, MRC5; assay type: cell-based, human; conditions: for IC50: Homo sapiens, MRC5 non-cancerous cells, 48h, CCK-8
Source text: (§1) The cytotoxic effects of the newly synthesized diphenyl(tetrahydro-5H-indeno[2,1-c]quinolin-2-yl)phosphine oxides 8, diphenyl(7H-indeno[2,1-c]quinolin-2-yl)phosphine oxides 9, and diphenyl(7-oxo-7H-indeno[2,1-c]quinolin-2-yl)phosphine oxides 10 derivatives were studied against several human cell lines: A549 (carcinomic human alveolar basal epithelial cell), SKOV3 (human ovarian carcinoma), and HEK293 (human embryonic kidney). Furthermore, in order to analyze the selective cytotoxicity facing exclusively cancerous cell lines, toxicity against a non-cancerous cell line (MRC-5, lung fibroblast cells) was also evaluated (Table 3). The cell counting kit (CCK-8) assay was employed to assess the growth inhibition and cell proliferation inhibitory activities of the compounds, which are described in Table 3 as IC50 values.
(§2) Cells were cultured according to the supplier’s instructions. Cells were seeded in 96-well plates at a density of 1.5–3 × 10^3 cells per well and incubated overnight in 0.1 mL of media supplied with 10% Fetal Bovine Serum (Lonza) in a 5% CO2 incubator at 37 °C. On day 2, drugs were added and the samples were incubated for 48h. After treatment, 10 μL of the cell counting kit-8 was added into each well for an additional 2h incubation at 37 °C. The absorbance of each well was determined by an Automatic Elisa Reader System at 450 nm wavelength (deducting 620 nm). CPT was used as the positive control.

[3] = system: A549 (carcinomic human alveolar basal epithelial cell); assay: CCK-8 cytotoxicity assay, A549; assay type: cell-based; conditions: for IC50: A549 cells, 48h, CCK-8
Source text: as §1, §2

[4] = system: SKOV3 (human ovarian carcinoma); assay: CCK-8 cytotoxicity assay, SKOV3; assay type: cell-based; conditions: SK-OV-3, SKOV3 cells, 48h
Source text: as §1, §2

human TOP1 [5] = target: T1, human TOP1; assay: TOP1 supercoiled plasmid DNA relaxation assay; assay type: biochemical; conditions: 30 min reaction; compounds at 100 μM; semiquantitative
[6] = system: HEK293 (human embryonic kidney); assay: CCK-8 cytotoxicity assay, HEK293; assay type: cell-based; conditions: HEK293 cells, 48h
Source text: as §1, §2

| SMILES | TOP1 Inhibition 1 min (human TOP1 [1]) | TOP1 Inhibition 3 min (human TOP1 [1]) | TOP1 Inhibition 5 min (human TOP1 [1]) | Persistence of TOP1 inhibition over the time course (human TOP1 [1]) | IC50 [2] | Cytotoxicity against MRC5 (in words) ([2]; non-cancerous cell line) | IC50 ([3]; Homo sapiens, A549, 48 h) | IC50 [4] | TOP1 Inhibition 30 min (human TOP1 [5]) | IC50 [6] | Cytotoxicity against A549 (in words) [3] | IC50 ([3]; listed as 9k) |
| --- | --- | --- | --- | --- | --- | --- | --- | --- | --- | --- | --- | --- |
| CC[C@@]1(O)C(=O)OCc2c1cc1n(c2=O)Cc2cc3ccccc3nc2-1 [CPT, camptothecin, reference compound] | ++ | − (no inhibition) | − (no inhibition) | short-term reversible effect | 0.11 ± 0.02 µM | high toxicity | 0.001 µM | 0.0055 µM | − (no inhibition) |  |  |  |
| O=P(c1ccccc1)(c1ccccc1)c1ccc2c(c1)C1c3ccccc3CC1C(c1cccc(F)c1)N2 (centres unmarked) [Compound 8d, Diphenyl(6-(3-fluorophenyl)-6,6a,7,11b-tetrahydro-5H-indeno[2,1-c]quinolin-2-yl)phosphine oxide] | ++ | ++ | ++ |  | > 50 µM |  | 43.1 ± 12.1 µM | > 50 µM |  | > 50 µM |  |  |
| O=P(c1ccccc1)(c1ccccc1)c1ccc2c(c1)C1c3ccccc3CC1C(c1ccc(F)c(F)c1)N2 (centres unmarked) [Compound 8e, Diphenyl(6-(3,4-difluorophenyl)-6,6a,7,11b-tetrahydro-5H-indeno[2,1-c]quinolin-2-yl)phosphine oxide] | ++ | ++ | ++ |  | > 50 µM |  | > 50 µM | 13.2 ± 2.79 µM |  | > 50 µM |  |  |
| O=P(c1ccccc1)(c1ccccc1)c1ccc2c(c1)C1c3ccccc3CC1C(c1ccc(F)cc1F)N2 (centres unmarked) [Compound 8f, Diphenyl(6-(2,4-difluorophenyl)-6,6a,7,11b-tetrahydro-5H-indeno[2,1-c]quinolin-2-yl)phosphine oxide] | + (weak inhibition) | + (weak inhibition) | + (weak inhibition) |  | > 50 µM |  | > 50 µM | 31 ± 3.17 µM |  | > 50 µM |  |  |

Now from value to compound, other results behind:

| TOP1 Inhibition 1 min (human TOP1 [1]) | TOP1 Inhibition 3 min (human TOP1 [1]) | TOP1 Inhibition 5 min (human TOP1 [1]) | SMILES | Persistence of TOP1 inhibition over the time course (human TOP1 [1]) | IC50 [2] | Cytotoxicity against MRC5 (in words) ([2]; non-cancerous cell line) | IC50 ([3]; Homo sapiens, A549, 48 h) | IC50 [4] | TOP1 Inhibition 30 min (human TOP1 [5]) | IC50 [6] | Cytotoxicity against A549 (in words) [3] | IC50 ([3]; listed as 9k) |
| --- | --- | --- | --- | --- | --- | --- | --- | --- | --- | --- | --- | --- |
| + (weak inhibition) | ++ | ++ | O=P(c1ccccc1)(c1ccccc1)c1ccc2nc(-c3ccccc3)c3c(c2c1)-c1ccccc1C3 [Compound 9a, Diphenyl(6-phenyl-7H-indeno[2,1-c]quinolin-2-yl)phosphine oxide] | more persistent inhibition | > 50 µM |  | > 50 µM | > 50 µM |  | > 50 µM |  |  |
| + (weak inhibition) | + (weak inhibition) | + (weak inhibition) | O=P(c1ccccc1)(c1ccccc1)c1ccc2nc(-c3ccc(F)cc3)c3c(c2c1)-c1ccccc1C3 [Compound 9c] |  | > 50 µM |  | > 50 µM | > 50 µM |  | > 50 µM |  |  |
| + (weak inhibition) | + (weak inhibition) | + (weak inhibition) | O=P(c1ccccc1)(c1ccccc1)c1ccc2nc(-c3cccc(F)c3)c3c(c2c1)-c1ccccc1C3 [Compound 9d, Diphenyl(6-(3-fluorophenyl)-7H-indeno[2,1-c]quinolin-2-yl)phosphine oxide] |  | > 50 µM |  | > 50 µM | > 50 µM |  | > 50 µM |  |  |
| ++ | ++ | ++ | O=P(c1ccccc1)(c1ccccc1)c1ccc2nc(-c3ccc(F)cc3F)c3c(c2c1)-c1ccccc1C3 [Compound 9f, Diphenyl(6-(2,4-difluorophenyl)-7H-indeno[2,1-c]quinolin-2-yl)phosphine oxide] |  | > 50 µM |  | 41.7 ± 7.25 µM | > 50 µM |  | > 50 µM | slight cytotoxicity |  |
| ++ | ++ | ++ | COc1ccc(-c2nc3ccc(P(=O)(c4ccccc4)c4ccccc4)cc3c3c2Cc2ccccc2-3)cc1 [Compound 9h, Diphenyl(6-(4-methoxyphenyl)-7H-indeno[2,1-c]quinolin-2-yl)phosphine oxide] |  |  |  |  |  |  |  |  |  |
| + (weak inhibition) | + (weak inhibition) | + (weak inhibition) | O=P(c1ccccc1)(c1ccccc1)c1ccc2nc(-c3ccc(Br)cc3)c3c(c2c1)-c1ccccc1C3 [Compound 9j, Diphenyl(6-(4-bromophenyl)-7H-indeno[2,1-c]quinolin-2-yl)phosphine oxide] |  | > 50 µM |  | 42.3 ± 2.09 µM | > 50 µM |  | > 50 µM | slight cytotoxicity | > 50 µM |
| + (weak inhibition) | + (weak inhibition) | + (weak inhibition) | O=C1c2ccccc2-c2c1c(-c1cccc(F)c1)nc1ccc(P(=O)(c3ccccc3)c3ccccc3)cc21 [Compound 10d, (6-(3-Fluorophenyl)-7-oxo-7H-indeno[2,1-c]quinolin-2-yl)diphenylphosphine oxide] |  | > 50 µM |  | > 50 µM | > 50 µM |  | > 50 µM |  |  |
| ++ | ++ | ++ | O=C1c2ccccc2-c2c1c(-c1ccc(F)c(F)c1)nc1ccc(P(=O)(c3ccccc3)c3ccccc3)cc21 [Compound 10e] |  | > 50 µM |  | > 50 µM | > 50 µM |  | > 50 µM |  |  |
